Each block holds one compound with its values, some of them ahead of it.
Assays:
CYP3A4 [1] = assay: Metabolic activity of midazolam (CYP3A4 metabolic activity) in differentiated intestinal epithelial cell-like cells; assay type: cell-based, human; conditions: VD3 10 nmol/L; cells induced to differentiate using 8-Br-cAMP and IBMX; midazolam 100 μmol/L
Procedure: The metabolic activity was calculated from the amount of 1-hydroxymidazolam in the medium measured using a liquid chromatography-mass spectrometer (LC-MS/MS). After completion of the experiment on metabolism, protein quantification was carried out, and the metabolic activity was corrected by the amount of protein.

CYP3A4 [2] = test system: CYP3A4
OATP = assay: Uptake of estrone-3-sulfate (ES) (OATP transport activity); assay type: cell-based, human; conditions: BSP 0.2 mmol/L; cells induced to differentiate using 8-Br-cAMP and IBMX
Procedure: (§1) After completion of induction of differentiation, incubation was performed at 37° C. or 4° C. with an uptake solution containing tritium-labeled Gly-Sar or ES. In the Gly-Sar uptake experiment, there was used an uptake solution containing 137 mmol/L sodium chloride, 5.4 mmol/L potassium chloride, 0.81 mmol/L magnesium sulfate, 0.44 mmol/L potassium dihydrogen phosphate, 0.34 mmol/L disodium hydrogen phosphate, 1.3 mmol/L calcium chloride, 4.2 mmol/L sodium hydrogen carbonate, 5.6 mmol/L D-glucose and 10 mmol/L MES and having a pH of 6.0. In the ES uptake experiment, there was used an uptake solution containing 137 mmol/L sodium chloride, 5.4 mmol/L potassium chloride, 0.81 mmol/L magnesium sulfate, 0.44 mmol/L potassium dihydrogen phosphate, 0.34 mmol/L disodium hydrogen phosphate, 1.3 mmol/L calcium chloride, 4.2 mmol/L sodium hydrogen carbonate, 5.6 mmol/L D-glucose, and 10 mmol/L HEPES and having a pH of 7.4. After completion of incubation, uptake was stopped by washing the cells with the ice-cold uptake solution. Thereafter, the cells were solubilized with a 0.2 M sodium hydroxide solution containing 0.5% sodium dodecyl sulfate (SDS), and a scintillation solution was added. The intracellular uptake of Gly-Sar or ES was calculated from the radioactivity measured using a liquid scintillation counter.

mucin 2 = assay: Expression (mRNA level) of mucin 2 in iPS cell-derived intestinal epithelial cell-like cells; conditions: for expression (mRNA level) of mucin 2 (mucosa protecting action): added for 6 days, irsogladine 10, 40 μM, rebamipide 50, 100, 250, 1000 μM, vs control
PEPT1 = target: T1, PEPT1 (Homo sapiens, UniProt P46059); assay: Uptake of glycylsarcosine (Gly-Sar) (PEPT1 transport activity); assay type: cell-based; conditions: ibuprofen 3 mmol/L
T1 construct: uptake of glycylsarcosine (Gly-Sar) in the differentiated intestinal epithelial cell-like cells (PEPT1 transport activity); endogenous in cells; host or cells: human iPS cell (iPS-51: Windy)-derived intestinal epithelial cell-like cells
T1 sequence (P46059 1-708): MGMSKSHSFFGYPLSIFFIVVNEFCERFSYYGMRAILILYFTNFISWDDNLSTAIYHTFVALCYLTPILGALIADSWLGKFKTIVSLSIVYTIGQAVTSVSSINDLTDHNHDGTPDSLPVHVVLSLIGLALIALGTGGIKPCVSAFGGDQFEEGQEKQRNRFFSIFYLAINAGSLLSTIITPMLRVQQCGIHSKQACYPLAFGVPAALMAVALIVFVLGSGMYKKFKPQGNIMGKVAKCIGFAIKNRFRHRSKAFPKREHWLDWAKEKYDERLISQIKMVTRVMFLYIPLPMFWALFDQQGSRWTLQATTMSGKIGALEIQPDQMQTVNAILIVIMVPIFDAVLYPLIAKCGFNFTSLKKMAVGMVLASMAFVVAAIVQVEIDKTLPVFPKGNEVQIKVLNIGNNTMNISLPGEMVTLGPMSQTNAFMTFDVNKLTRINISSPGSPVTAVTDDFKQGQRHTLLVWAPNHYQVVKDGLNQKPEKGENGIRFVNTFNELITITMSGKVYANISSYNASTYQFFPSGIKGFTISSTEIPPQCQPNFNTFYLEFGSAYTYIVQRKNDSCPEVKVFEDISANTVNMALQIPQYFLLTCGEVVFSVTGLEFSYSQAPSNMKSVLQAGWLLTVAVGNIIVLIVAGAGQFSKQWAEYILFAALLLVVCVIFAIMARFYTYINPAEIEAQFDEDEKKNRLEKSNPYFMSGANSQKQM
Procedure: as §1

ALK4 = target: T2, ALK4 (Homo sapiens, UniProt P36896); conditions: cited from earlier work
T2 sequence (P36896 24-505): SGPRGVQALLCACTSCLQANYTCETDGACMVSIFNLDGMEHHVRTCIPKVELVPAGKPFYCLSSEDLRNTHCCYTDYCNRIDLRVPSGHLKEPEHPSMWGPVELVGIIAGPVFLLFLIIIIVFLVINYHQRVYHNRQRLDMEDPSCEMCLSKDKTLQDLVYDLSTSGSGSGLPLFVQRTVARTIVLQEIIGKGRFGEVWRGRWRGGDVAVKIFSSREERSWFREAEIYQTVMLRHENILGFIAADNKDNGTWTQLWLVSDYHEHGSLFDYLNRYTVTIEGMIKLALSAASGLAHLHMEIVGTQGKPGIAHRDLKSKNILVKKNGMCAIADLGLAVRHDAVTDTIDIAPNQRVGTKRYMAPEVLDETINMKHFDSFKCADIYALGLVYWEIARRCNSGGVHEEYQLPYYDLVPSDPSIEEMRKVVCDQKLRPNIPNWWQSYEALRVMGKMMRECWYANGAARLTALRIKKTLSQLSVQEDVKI

ALK5 = target: T3, ALK5 (Homo sapiens, UniProt P36897); conditions: cited from earlier work
T3 sequence (P36897 34-503): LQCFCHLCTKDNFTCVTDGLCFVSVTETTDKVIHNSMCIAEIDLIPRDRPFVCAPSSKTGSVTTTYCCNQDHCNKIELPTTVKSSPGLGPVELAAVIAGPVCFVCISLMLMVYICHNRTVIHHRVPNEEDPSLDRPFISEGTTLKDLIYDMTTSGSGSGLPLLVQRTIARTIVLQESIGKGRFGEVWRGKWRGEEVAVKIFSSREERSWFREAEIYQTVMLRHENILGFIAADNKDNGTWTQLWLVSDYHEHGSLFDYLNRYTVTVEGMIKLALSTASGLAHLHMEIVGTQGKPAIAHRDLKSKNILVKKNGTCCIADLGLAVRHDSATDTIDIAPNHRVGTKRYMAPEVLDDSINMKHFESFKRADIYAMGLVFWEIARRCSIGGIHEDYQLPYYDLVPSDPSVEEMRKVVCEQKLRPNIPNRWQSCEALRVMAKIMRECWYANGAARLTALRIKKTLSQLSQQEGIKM

ALK7 = target: T4, ALK7 (Homo sapiens, UniProt Q8NER5); conditions: cited from earlier work
T4 sequence (Q8NER5 21-493): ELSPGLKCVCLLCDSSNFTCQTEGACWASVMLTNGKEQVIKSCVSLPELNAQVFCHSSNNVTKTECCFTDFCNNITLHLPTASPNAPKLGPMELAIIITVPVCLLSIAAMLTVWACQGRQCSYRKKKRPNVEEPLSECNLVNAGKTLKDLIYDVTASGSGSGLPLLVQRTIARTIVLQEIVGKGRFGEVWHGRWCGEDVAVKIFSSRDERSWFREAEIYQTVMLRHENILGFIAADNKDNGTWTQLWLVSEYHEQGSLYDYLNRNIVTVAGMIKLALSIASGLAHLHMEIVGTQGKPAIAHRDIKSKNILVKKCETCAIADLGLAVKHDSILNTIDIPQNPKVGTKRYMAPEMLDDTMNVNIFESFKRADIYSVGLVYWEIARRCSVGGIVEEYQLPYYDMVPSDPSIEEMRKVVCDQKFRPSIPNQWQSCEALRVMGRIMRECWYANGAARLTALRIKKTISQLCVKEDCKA

Structure (SMILES): C=C1/C(=C\C=C2/CCC[C@]3(C)[C@@H]([C@H](C)CCCC(C)(C)O)CC[C@@H]23)C[C@@H](O)C[C@@H]1O [1α,25-dihydroxyvitamin D3]
activity of CYP3A4 (1-hydroxymidazolam formation) upon inducer treatment (CYP3A4 [1]): significantly increased
induction of CYP3A4 expression (CYP3A4 [2]): observed

Structure (SMILES): O=C1OC(c2ccc(O)c(S(=O)(=O)O)c2)(c2ccc(O)c(S(=O)(=O)O)c2)c2c(Br)c(Br)c(Br)c(Br)c21 [BSP, bromsulphthalein]
uptake of ES in the presence of inhibitor (OATP): significantly reduced

Structure (SMILES): O=C(NC(Cc1cc(=O)[nH]c2ccccc12)C(=O)O)c1ccc(Cl)cc1 (centres unmarked) [rebamipide]
expression (mRNA level) of mucin 2 (mucosa protecting action) (mucin 2): increased

Structure (SMILES): Nc1nc(N)nc(-c2cc(Cl)ccc2Cl)n1 [irsogladine]
expression (mRNA level) of mucin 2 (mucosa protecting action) (mucin 2): increased

Gly-Sar uptake in the presence of inhibitor (PEPT1; cells by the conventional differentiation method): significantly reduced
Gly-Sar uptake in the presence of inhibitor (PEPT1; cells induced to differentiate using 8-Br-cAMP and IBMX): significantly reduced
Structure (SMILES): CC(C)Cc1ccc(C(C)C(=O)O)cc1 (centres unmarked) [ibuprofen]

Structure (SMILES): Cc1cccc(-c2nn(C(=S)Nc3ccccc3)cc2-c2ccnc3ccccc23)n1 [A-83-01]
inhibitory activity against TGF-β receptor ALK4 (ALK4): shows inhibitory activity
inhibitory activity against TGF-β receptor ALK5 (ALK5): shows inhibitory activity
inhibitory activity against TGF-β receptor ALK7 (ALK7): shows inhibitory activity

expression (mRNA level) of mucin 2 (mucosa damaging action) (mucin 2; ketoprofen 200 μM for 6 days, excepted from the decrease seen with NSAIDs): except for ketoprofen-200
Structure (SMILES): CC(C(=O)O)c1cccc(C(=O)c2ccccc2)c1 (centres unmarked) [ketoprofen]
